Measurements reported in the NIST ThermoML archive (doi:10.1016/j.fluid.2018.04.021).
± gives the expanded uncertainty stated by the source.

Settings: Liquid; flow method with low residence time

Structure (SMILES) | Critical pressure | Critical temperature
C1CCCCC1 [cyclohexane] | 4074 ± 36 kPa | 553.6 ± 0.4 K
CCOC(=O)OCC [diethyl carbonate] | 3346 ± 30 kPa | 578.1 ± 0.4 K
CCO [ethanol] | 6141 ± 51 kPa | 514 ± 0.4 K
CCCCCCC [heptane] | 2736 ± 25 kPa | 540.1 ± 0.4 K
CCCCCC [hexane] | 3033 ± 27 kPa | 507.8 ± 0.4 K
CCCCCCCC [octane] | 2496 ± 24 kPa | 568.9 ± 0.4 K
